According to US20090269770A1, “METHODS FOR EVALUATION PROGNOSIS AND FOLLOW-UP OF DRUG TREATMENT OF PSYCHIATRIC DISEASES OR DISORDERS” (priority 2008, published 2009):
Values joined by “and” are separate entries in the source; they are usually repeats but may differ in a detail not shown here. Equal values may be shown once. “Also recorded” adds a separate entry of the source.

What was measured:
[1] = tested on: PMC from schizophrenic patients; assay: GPCR cDNA array (GEArray Q series) of PMC gene expression, fluvoxamine augmentation; assay type: in vivo, human; parameters: key to Gene expression change CCR5 (X91492), divided by week 0 / Gene expression change CCR7 (L31581), divided by week 0 / Gene expression change CCRL1 (AF110640), divided by week 0 / Gene expression change CRL1 (U79527), divided by week 0 / Gene expression change IL8Rα (L19591), divided by week 0 / Gene expression change RGS7 (BC022009), divided by week 0 / Gene expression change 5-HT2A (X57830), divided by week 0 / Gene expression change 5-HT7 (L21195), divided by week 0 / Gene expression change CCR1 (D10925), divided by week 0: D—down regulation (<0.7); U—up regulation (>1.3); nc—No change; nd—Not detected; conditions: for Gene expression change 5-HT2A (X57830), divided by week 0 / Gene expression change 5-HT7 (L21195), divided by week 0 / Gene expression change CCR1 (D10925), divided by week 0 / Gene expression change CCR5 (X91492), divided by week 0 / Gene expression change CCR7 (L31581), divided by week 0 / Gene expression change CCRL1 (AF110640), divided by week 0 / Gene expression change CRL1 (U79527), divided by week 0 / Gene expression change IL8Rα (L19591), divided by week 0 / Gene expression change RGS7 (BC022009), divided by week 0: PMC, one cell per patient I-VI
Procedure: (§1) Patients suffering from chronic schizophrenia (DSM IV criteria) with at least 2 years of illness (range 2-17 years) and persistent negative symptoms were chosen from an Israeli mental health center, as shown in Table 1. To qualify for inclusion in the study, these patients were required to be on constant antipsychotic medication for at least 6 months prior to the study and on an unchanged dose for at least 4 weeks before entry.
(§2) Fluvoxamine (100 mg/day) was added in an open study format to the antipsychotic treatment, which remained steady. Clinical state was assessed by psychiatrists using validated rating scales for negative (SANS) and positive (SAPS) symptoms (Silver et al., 2003) prior to fluvoxamine treatment and then weekly until the end of the trial period. Total SANS scores and summary scores for […] blunting, alogia, anhedonia and […] factors were the outcome measures. Extrapyramidal symptoms were assessed with the Simpson-Angus Scale (SAS) for extrapyramidal side effects (Simpson and Angus, 1970). Blood samples were taken at baseline (day 0), before addition of fluvoxamine, after 3 weeks of combined treatment, a time when the initial clinical effect is expected to be seen (Silver et al., 2003), and after 6 weeks of the combined treatment.
Blood samples (40 ml) from patients were collected in EDTA-coated tubes in order to prevent coagulation, and transported in ice to the laboratory for further processing. Each 15 ml of blood was completed to 40 ml with phosphate buffered saline (PBS) and gently mixed. PMC were isolated according to Ficoll protocol (Sigma, USA). In short, after addition of Ficoll reagent, the tubes were centrifuged (400 g, 30 min), and the interphase was transferred to a new tube, mixed with 100 ml PBS and centrifuged (400 g, 10 min). The supernatant was discarded and the pellet containing the PMC was washed 3 times with PBS (400 g, 10 min). TriReagent (Sigma, USA) was added to the pellet and left on ice for 15 min.
[…] chloroform was added to 1 ml of sample in TriReagent and the suspension was centrifuged (12,000 g, 20 min, 4° C.). After precipitation with isopropanol, the RNA pellet was washed twice with 70% ethanol (7,500 g, 10 min), followed by one wash with 96% ethanol (12,000 g, 10 min) and resuspended in diethylpyrocarbonate (DEPC)-treated water. RNA sample concentrations were determined by UV spectrophotometry at 260 nm (average OD260/2801.9-2). RNA purity was determined by the 260/230 and 260/280 ratios. RNA integrity was confirmed using gel (1.2% agarose) electrophoresis by direct visualization of 18S and 28S rRNA bands and densitometric analysis.
In the next step, gene expression profiles were examined with GEArray™ cDNA membranes, consisting of genes related to G protein-coupled receptor (GPCR) pathways (Q series human G protein-coupled receptor gene array II, SuperArray, Bethesda, Md., USA). Each membrane consists of 100 human cDNAs fragments associated with GPCR family, including receptors for dopamine (DA), serotonin (5-HT), acetylcholine and epinephrine; receptors for chemokines; GPCR kinases; Mitogen activated protein kinases; and regulators of G-protein signaling (RGS). Hybridization array analysis was performed according to the manufacturer's (SuperArray, Bethesda, Md.) protocol. Total RNA from each patient was reverse transcribed with biotinylated dUTP (Roche Diagnostics, Mannheim, Germany) and a gene specific primer mix (SuperArray, Bethesda, Md.). The probes were hybridized to the membrane and the array image was recorded using X-ray film. Quantitation of the results and analysis was accomplished using the manufacturer Software Package (SuperArray, Bethesda, Md.). The row values from 4 spotted replicates of a gene were averaged, normalized to the median of all intensity values on array and compared to control values, thereby assessing the relative expression level of a given mRNA. […]

schizophrenic patients = assay: Clinical rating scales for negative (SANS) and positive (SAPS) symptoms; assay type: in vivo, human; conditions: for SANS total / SAPS total / Affective blunting score / Alogia score / Anhedonia score / Avolition score: one line per patient I-VI
Procedure: as §1, §2
The biochemical data were analyzed by one way analysis of variance (ANOVA) followed by Dunnett's test. For each gene, differences between expression after 3 or 6 weeks of treatment ad baseline, were considered significant if they reached a level of significance of p<0.05. Clinical response was assessed with repeated measure ANOVA.

[2] = after 3 weeks or more of the combined treatment
[3] = in at least 4 out of the 6 subjects after 3 weeks or more of the combined treatment

COCCCC/C(=N\OCCN)c1ccc(C(F)(F)F)cc1 [fluvoxamine]
expression level of CCR5 [1, 2]: increase
transcript encoding 5-HR7 [1, 2]: reduced expression level
transcript encoding 5-HT2A [1, 2]: reduced expression level
transcript encoding RGS7 [1, 2]: reduced expression level
expression level of CCR1 [1, 3]: decrease
expression level of CCRL1 [1, 3]: decrease
expression level of CMKLR1 [1, 3]: decrease
expression level of IL8Rα [1, 3]: decrease
Gene expression change 5-HT2A (X57830), divided by week 0 ([1]; week 3): D (D—down regulation (<0.7)) (4×) and nc
Gene expression change 5-HT7 (L21195), divided by week 0 ([1]; week 3): D (D—down regulation (<0.7)) (4×) and nc
Gene expression change CCR1 (D10925), divided by week 0 ([1]; week 3): D (D—down regulation (<0.7)) (3×) and nc
Gene expression change CCR5 (X91492), divided by week 0 ([1]; week 3): U (U—up regulation (>1.3))
Gene expression change CCR7 (L31581), divided by week 0 ([1]; week 3): nc (2×) and D (D—down regulation (<0.7)) (3×) and U (U—up regulation (>1.3))
Gene expression change CCRL1 (AF110640), divided by week 0 ([1]; week 3): nc (3×) and D (D—down regulation (<0.7)) (3×)
Gene expression change CRL1 (U79527), divided by week 0 ([1]; week 3): D (D—down regulation (<0.7)) (4×) and nc (2×)
Gene expression change IL8Rα (L19591), divided by week 0 ([1]; week 3): D (D—down regulation (<0.7)) (3×) and nc and U (U—up regulation (>1.3)) (2×)
Gene expression change RGS7 (BC022009), divided by week 0 ([1]; week 3): D (D—down regulation (<0.7)) (2×) and nc (3×) and U (U—up regulation (>1.3))
Gene expression change 5-HT2A (X57830), divided by week 0 ([1]; week 6): nc and D (D—down regulation (<0.7)) (4×)
Gene expression change 5-HT7 (L21195), divided by week 0 ([1]; week 6): D (D—down regulation (<0.7)) (4×) and nc
Gene expression change CCR1 (D10925), divided by week 0 ([1]; week 6): D (D—down regulation (<0.7)); also recorded: U (U—up regulation (>1.3))
Gene expression change CCR5 (X91492), divided by week 0 ([1]; week 6): U (U—up regulation (>1.3)) and nc (2×) and D (D—down regulation (<0.7))
Gene expression change CCR7 (L31581), divided by week 0 ([1]; week 6): U (U—up regulation (>1.3)) (3×) and nc (2×) and D (D—down regulation (<0.7))
Gene expression change CCRL1 (AF110640), divided by week 0 ([1]; week 6): U (U—up regulation (>1.3)) (2×) and nc (2×) and D (D—down regulation (<0.7)) (2×)
Gene expression change CRL1 (U79527), divided by week 0 ([1]; week 6): D (D—down regulation (<0.7)) (4×) and nc and U (U—up regulation (>1.3))
Gene expression change IL8Rα (L19591), divided by week 0 ([1]; week 6): D (D—down regulation (<0.7)) (4×) and U (U—up regulation (>1.3)) and nc
Gene expression change RGS7 (BC022009), divided by week 0 ([1]; week 6): D (D—down regulation (<0.7)) (4×) and nc (2×)
expression level of CCR7 ([1]; week 6 compared with week 3): increased
expression level of CCRL1 ([1]; week 6 compared with week 3): increased
SANS total (schizophrenic patients; 3 W of augmentation treatment): 71 and 49 and 69 and 104 and 91 and 97
SAPS total (schizophrenic patients; 3 W of augmentation treatment): 9 and 7 (2×) and 12 (2×) and 11
Affective blunting score (schizophrenic patients; 3 W): 23 and 26 and 19 and 9 and 18 and 27
Alogia score (schizophrenic patients; 3 W): 24 and 21 and 13
Anhedonia score (schizophrenic patients; 3 W): 14 (2×) and 16 and 11 (2×) and 17
Avolition score (schizophrenic patients; 3 W): 16 and 18 and 11 and 8 (2×) and 19
SANS total (schizophrenic patients; 6 W of augmentation treatment): 63 and 46 and 60 and 103 and 86 and 98
SAPS total (schizophrenic patients; 6 W of augmentation treatment): 9 and 7 and 6 and 12 (2×) and 10
Affective blunting score (schizophrenic patients; 6 W): 30 and 22 and 14
Alogia score (schizophrenic patients; 6 W): 21 and 26 (2×) and 16 and 9 and 15
Anhedonia score (schizophrenic patients; 6 W): 14 (2×) and 8 and 9 and 12 and 17
Avolition score (schizophrenic patients; 6 W): 16 and 18 and 11 and 8 (2×) and 19
SAPS score change (schizophrenic patients; following augmentation-treatment): no significant change
mean SANS total score change (schizophrenic patients; following augmentation-treatment, p<0.001): significant changes
affective blunting change (schizophrenic patients; following augmentation-treatment, p<0.01): significant changes
anhedonia change (schizophrenic patients; following augmentation-treatment, p=0.30): trend
avolition change (schizophrenic patients; following augmentation-treatment, p=0.75): trend
